Experimental data: patent US7919513B2, “Inhibitors of p38” (Vertex Pharmaceuticals Incorporated, priority 2000, dated 2011)

Experiments:
[1] = tested on: TNF production in whole blood; assay: Inhibition of TNF production in LPS-stimulated whole blood ("WB"); format: cell-based; conditions: Homo sapiens, 4 ng/ml LPS, overnight, ELISA TNF-α
Method: (§1) C. Inhibition of IL-1, TNF, IL-6 and IL-8 Production in LPS-Stimulated PBMCs
(§2) Inhibitors were serially diluted in DMSO from a 20 mM stock. At least 6 serial dilutions were prepared. Then 4× inhibitor stocks were prepared by adding 4 μl of an inhibitor dilution to 1 ml of RPMI1640 medium/10% fetal bovine serum. The 4× inhibitor stocks contained inhibitor at concentrations of 80 μM, 32 μM, 12.8 μM, 5.12 μM, 2.048 μM, 0.819 μM, 0.328 μM, 0.131 μM, 0.052 μM, 0.021 μM etc. The 4× inhibitor stocks were pre-warmed at 37° C. until use.
(§3) Alternatively, whole blood containing an anti-coagulant was used directly in the assay.
(§4) 100 μl of cell suspension or whole blood were placed in each well of a 96-well cell culture plate. Then 50 μl of the 4× inhibitor stock was added to the cells. Finally, 50 μl of a lipopolysaccharide (LPS) working stock solution (16 ng/ml in cell culture medium) was added to give a final concentration of 4 ng/ml LPS in the assay. […]
(§5) The next day the cells were mixed on a shaker for 3-5 minutes before centrifugation at 500×g for 5 minutes. Cell culture supernatants were harvested and analyzed by ELISA for levels of IL-1β (R & D Systems, Quantikine kits, #DBL50), TNF-α (BioSource, #KHC3012), IL-6 (Endogen, #EH2-IL6) and IL-8 (Endogen, #EH2-IL8) according to the instructions of the manufacturer. […]

[2] = tested on: IL-6 production in whole blood; assay: Inhibition of IL-6 production in LPS-stimulated whole blood ("WB"); format: cell-based; conditions: Homo sapiens, 4 ng/ml LPS, overnight, ELISA IL-6
Method: as §1, §2, §3, §4, §5

[3] = tested on: IL-1 production in whole blood; assay: Inhibition of IL-1 production in LPS-stimulated whole blood ("WB"); format: cell-based; conditions: Homo sapiens, 4 ng/ml LPS, overnight, ELISA IL-1β
Method: as §1, §2, §3, §4, §5

[4] = tested on: TNF production in LPS-stimulated PBMCs; assay: Inhibition of TNF production in LPS-stimulated PBMCs ("cell"); format: cell-based; conditions: Homo sapiens, PBMC, 4 ng/ml LPS, overnight, ELISA TNF-α
Method: as §1, §2
(§6) Fresh human blood buffy cells were separated from other cells in a Vacutainer CPT from Becton & Dickinson (containing 4 ml blood and enough DPBS without Mg^2+/Ca^2+ to fill the tube) by centrifugation at 1500×g for 15 min. […] The total cell number was determined using a Neubauer Cell Chamber and the cells were adjusted to a concentration of 4.8×10^6 cells/ml in cell culture medium (RPMI1640 supplemented with 10% fetal bovine serum). […]
as §5

activated p38 = activated p38 (Homo sapiens, UniProt Q16539); assay: Kinase assay: inhibition of phosphorylation of EGF receptor peptide; format: biochemical; conditions: activated p38 5 nM, EGF receptor peptide 200 μM, ATP 100 μM, 30° C, HPLC
Method: A. Inhibition of Phosphorylation of EGF Receptor Peptide
This assay was carried out in the presence of 10 mM MgCl2, 25 mM β-glycerophosphate, 10% glycerol and 100 mM HEPES buffer at pH 7.6. For a typical IC50 determination, a stock solution was prepared containing all of the above components and activated p38 (5 nM). The stock solution was aliquotted into vials. A fixed volume of DMSO or inhibitor in DMSO (final concentration of DMSO in reaction was 5%) was introduced to each vial, mixed and incubated for 15 minutes at room temperature. EGF receptor peptide, […] (SEQ ID NO: 3), a phosphoryl acceptor in p38-catalyzed kinase reaction (1), was added to each vial to a final concentration of 200 μM. The kinase reaction was initiated with ATP (100 μM) and the vials were incubated at 30° C. After 30 minutes, the reactions were quenched with equal volume of 10% trifluoroacetic acid (TFA).
The phosphorylated peptide was quantified by HPLC analysis. Separation of phosphorylated peptide from the unphosphorylated peptide was achieved on a reverse phase column (Deltapak, 5 μm, C18 100D, Part no. 011795) with a binary gradient of water and acteonitrile, each containing 0.1% TFA. IC50 (concentration of inhibitor yielding 50% inhibition) was determined by plotting the percent (%) activity remaining against inhibitor concentration.

[5] = tested on: IL-1 production in LPS-stimulated PBMCs; assay: Inhibition of IL-1 production in LPS-stimulated PBMCs ("cell"); format: cell-based; conditions: Homo sapiens, PBMC, 4 ng/ml LPS, overnight, ELISA IL-1β
Method: as §1, §2, §6, §5

activated p38, sequence (Q16539 whole entry): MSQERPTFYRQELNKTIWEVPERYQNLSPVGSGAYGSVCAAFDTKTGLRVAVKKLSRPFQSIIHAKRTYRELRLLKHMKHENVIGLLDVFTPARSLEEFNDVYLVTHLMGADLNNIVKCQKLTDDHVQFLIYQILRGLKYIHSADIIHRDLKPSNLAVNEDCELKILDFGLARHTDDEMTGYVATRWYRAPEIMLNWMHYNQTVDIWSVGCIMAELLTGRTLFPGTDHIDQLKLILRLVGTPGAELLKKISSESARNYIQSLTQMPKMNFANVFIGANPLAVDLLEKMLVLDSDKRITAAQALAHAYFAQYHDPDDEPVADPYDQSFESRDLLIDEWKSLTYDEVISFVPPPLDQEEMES

SMILES | IC50 [1] [µM] | IC50 [2] [µM] | IC50 [3] [µM] | IC50 [4] [µM] | IC50 (activated p38) [µM] | IC50 [5] [µM]
CN(C)/C=N/C(=O)OCc1ccc(N(C(N)=O)c2c(F)cccc2F)nc1-c1ccc(F)cc1F [Compound 9] | 20 | 11 | 12.2 | 0.05 | 1 | 0.05
CN(C)/C=N/C(=O)OCc1ccc(N(C(=O)/N=C/N(C)C)c2c(F)cccc2F)nc1-c1ccc(F)cc1F [Compound 10] | 4.3 | 0.8 | 2.2 |  | 5 | 
